According to US11590139B2, “Substituted aminopurine compounds, compositions thereof, and methods of treatment therewith” (Signal Pharmaceuticals, LLC, priority 2014, dated 2023):

tested on: Lox-IMVI melanoma cell line; assay: Lox-IMVI anti-proliferative assay (growth inhibition, Cell Titer-Glo); type: cell-based, human; details: Homo sapiens; IC50 activity level in the cell-based Lox-IMVI anti-proliferative assay; read-out: Activity
Method in brief: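 Luminescence from cellular ATP measured viability at compound addition and again after 72 h of exposure (37 °C, 5% CO2, RPMI + 10% FBS). Doses spanned 0.5 nM to 10 μM in ten 3-fold steps with 0.2% DMSO. Values were fitted as % of DMSO-treated cells by sigmoidal dose-response.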

`NC(=O)[C@H]1CC[C@@H](n2c(Nc3c(F)ccc(Cl)c3F)nc3cnc(N[C@@H]4CC[C@@H](O)C4)nc32)CC1` [Example 217, (1S,4s)-4-(8-(3-chloro-2,6-difluorophenylamino)-2-((1R,3R)-3-hydroxycyclopentylamino)-9H-purin-9-yl)cyclohexanecarboxamide] and `NC(=O)[C@H]1CC[C@@H](n2c(Nc3c(F)ccc(F)c3F)nc3cnc(N[C@@H]4CC[C@@H](O)C4)nc32)CC1` [Example 218, (1S,4s)-4-(2-((1R,3R)-3-hydroxycyclopentylamino)-8-(2,3,6-trifluorophenylamino)-9H-purin-9-yl)cyclohexanecarboxamide] cannot be ordered by IC50: > 1 µM for the first, > 1 µM for the second.

`NC(=O)[C@H]1CC[C@@H](n2c(Nc3ccc(Cl)cc3Cl)nc3cnc(N[C@@H]4CC[C@@H](O)C4)nc32)CC1` [Example 219, (1S,4s)-4-(8-(2,4-dichlorophenylamino)-2-((1R,3R)-3-hydroxycyclopentylamino)-9H-purin-9-yl)cyclohexanecarboxamide] and `NC(=O)[C@H]1CC[C@@H](n2c(Nc3ccc(F)c(F)c3F)nc3cnc(N[C@@H]4CC[C@@H](O)C4)nc32)CC1` [Example 220, (1S,4s)-4-(2-((1R,3R)-3-hydroxycyclopentylamino)-8-(2,3,4-trifluorophenylamino)-9H-purin-9-yl)cyclohexanecarboxamide] cannot be ordered by IC50: > 1 µM for the first, > 1 µM for the second.

`NC(=O)[C@H]1CC[C@@H](n2c(Nc3c(F)cc(Cl)cc3F)nc3cnc(N[C@@H]4CCOC4)nc32)CC1` [Example 221, (1S,4s)-4-(8-(4-chloro-2,6-difluorophenylamino)-2-((R)-tetrahydrofuran-3-ylamino)-9H-purin-9-yl)cyclohexanecarboxamide] and `NC(=O)[C@H]1CC[C@@H](n2c(Nc3c(F)cc(Cl)cc3F)nc3cnc(N[C@H]4CCOC4)nc32)CC1` [Example 242, (1R,4s)-4-(8-(4-chloro-2,6-difluorophenylamino)-2-((S)-tetrahydrofuran-3-ylamino)-9H-purin-9-yl)cyclohexanecarboxamide] fall in the same range of IC50: 0.5 to 1 µM for the first, 0.5 to 1 µM for the second.

`NC(=O)[C@H]1CC[C@@H](n2c(Nc3c(Cl)cc(F)cc3Cl)nc3cnc(N[C@@H]4CCOC4)nc32)CC1` [Example 222, (1S,4s)-4-(8-(2,6-dichloro-4-fluorophenylamino)-2-((R)-tetrahydrofuran-3-ylamino)-9H-purin-9-yl)cyclohexanecarboxamide] and `NC(=O)[C@H]1CC[C@@H](n2c(Nc3c(Cl)cc(F)cc3Cl)nc3cnc(N[C@H]4CCOC4)nc32)CC1` [Example 243, (1R,4s)-4-(8-(2,6-dichloro-4-fluorophenylamino)-2-((S)-tetrahydrofuran-3-ylamino)-9H-purin-9-yl)cyclohexanecarboxamide] fall in the same range of IC50: 0.5 to 1 µM for the first, 0.5 to 1 µM for the second.

Compared with `NC(=O)[C@H]1CC[C@@H](n2c(Nc3c(F)cc(Cl)cc3Cl)nc3cnc(N[C@@H]4CCOC4)nc32)CC1` [Example 223, (1S,4s)-4-(8-(2,4-dichloro-6-fluorophenylamino)-2-((R)-tetrahydrofuran-3-ylamino)-9H-purin-9-yl)cyclohexanecarboxamide], `NC(=O)[C@H]1CC[C@@H](n2c(Nc3c(F)cc(Cl)cc3Cl)nc3cnc(N[C@H]4CCOC4)nc32)CC1` [Example 244, (1R,4s)-4-(8-(2,4-dichloro-6-fluorophenylamino)-2-((S)-tetrahydrofuran-3-ylamino)-9H-purin-9-yl)cyclohexanecarboxamide] is higher in IC50: 0.25 to 0.5 µM for the first, 0.5 to 1 µM for the second. The first is the more potent here.

First: NC(=O)[C@H]1CC[C@@H](n2c(Nc3c(Cl)cc(Cl)cc3Cl)nc3cnc(NC4CC(F)(F)C4)nc32)CC1 [Example 224, (1s,4s)-4-(2-(3,3-difluorocyclobutylamino)-8-(2,4,6-trichlorophenylamino)-9H-purin-9-yl)cyclohexanecarboxamide]
Second: NC(=O)[C@H]1CC[C@@H](n2c(Nc3c(F)cc(Cl)cc3Cl)nc3cnc(NC4CC(F)(F)C4)nc32)CC1 [Example 230, (1s,4s)-4-(8-(2,4-dichloro-6-fluorophenylamino)-2-(3,3-difluorocyclobutylamino)-9H-purin-9-yl)cyclohexanecarboxamide]
The IC50 of the first is higher: > 1 µM for the first, 0.25 to 0.5 µM for the second. The second is the more potent here.

`NC(=O)[C@H]1CC[C@@H](n2c(Nc3c(F)cccc3Cl)nc3cnc(NC4CC(F)(F)C4)nc32)CC1` [Example 225, (1s,4s)-4-(8-(2-chloro-6-fluorophenylamino)-2-(3,3-difluorocyclobutylamino)-9H-purin-9-yl)cyclohexanecarboxamide] and `NC(=O)[C@H]1CC[C@@H](n2c(Nc3c(F)cccc3F)nc3cnc(NC4CC(F)(F)C4)nc32)CC1` [Example 227, (1s,4s)-4-(2-(3,3-difluorocyclobutylamino)-8-(2,6-difluorophenylamino)-9H-purin-9-yl)cyclohexanecarboxamide] cannot be ordered by IC50: > 1 µM for the first, > 1 µM for the second.

Compared with `NC(=O)[C@H]1CC[C@@H](n2c(Nc3c(F)cc(F)cc3F)nc3cnc(NC4CC(F)(F)C4)nc32)CC1` [Example 226, (1s,4s)-4-(2-(3,3-difluorocyclobutylamino)-8-(2,4,6-trifluorophenylamino)-9H-purin-9-yl)cyclohexanecarboxamide], `NC(=O)[C@H]1CC[C@@H](n2c(Nc3c(F)cc(F)cc3Cl)nc3cnc(NC4CC(F)(F)C4)nc32)CC1` [Example 228, (1s,4s)-4-(8-(2-chloro-4,6-difluorophenylamino)-2-(3,3-difluorocyclobutylamino)-9H-purin-9-yl)cyclohexanecarboxamide] is lower in IC50: > 1 µM for the first, 0.5 to 1 µM for the second. The second is the more potent here.

`NC(=O)[C@H]1CC[C@@H](n2c(Nc3c(F)cc(Cl)cc3F)nc3cnc(NC4CC(F)(F)C4)nc32)CC1` [Example 229, (1s,4s)-4-(8-(4-chloro-2,6-difluorophenylamino)-2-(3,3-difluorocyclobutylamino)-9H-purin-9-yl)cyclohexanecarboxamide] and `NC(=O)[C@H]1CC[C@@H](n2c(Nc3c(F)ccc(Cl)c3F)nc3cnc(NC4CC(F)(F)C4)nc32)CC1` [Example 234, (1s,4s)-4-(8-(3-chloro-2,6-difluorophenylamino)-2-(3,3-difluorocyclobutylamino)-9H-purin-9-yl)cyclohexanecarboxamide] cannot be ordered by IC50: > 1 µM for the first, > 1 µM for the second.

`NC(=O)[C@H]1CC[C@@H](n2c(Nc3c(Cl)cc(F)cc3Cl)nc3cnc(NC4CC(F)(F)C4)nc32)CC1` [Example 231, (1s,4s)-4-(8-(2,6-dichloro-4-fluorophenylamino)-2-(3,3-difluorocyclobutylamino)-9H-purin-9-yl)cyclohexanecarboxamide] and `NC(=O)[C@H]1CC[C@@H](n2c(Nc3ccc(Cl)c(F)c3F)nc3cnc(NC4CC(F)(F)C4)nc32)CC1` [Example 232, (1s,4s)-4-(8-(4-chloro-2,3-difluorophenylamino)-2-(3,3-difluorocyclobutylamino)-9H-purin-9-yl)cyclohexanecarboxamide] cannot be ordered by IC50: > 1 µM for the first, > 1 µM for the second.

`NC(=O)[C@H]1CC[C@@H](n2c(Nc3c(F)ccc(F)c3F)nc3cnc(NC4CC(F)(F)C4)nc32)CC1` [Example 233, (1s,4s)-4-(2-(3,3-difluorocyclobutylamino)-8-(2,3,6-trifluorophenylamino)-9H-purin-9-yl)cyclohexanecarboxamide] and `NC(=O)[C@H]1CC[C@@H](n2c(Nc3c(F)ccc(F)c3F)nc3cnc(NC4CCC(F)(F)CC4)nc32)CC1` [Example 239, (1s,4s)-4-(2-(4,4-difluorocyclohexylamino)-8-(2,3,6-trifluorophenylamino)-9H-purin-9-yl)cyclohexanecarboxamide] fall in the same range of IC50: 0.5 to 1 µM for the first, 0.5 to 1 µM for the second.

First: NC(=O)[C@H]1CC[C@@H](n2c(Nc3c(F)cccc3Cl)nc3cnc(NC4CCC(F)(F)CC4)nc32)CC1 [Example 235, (1s,4s)-4-(8-(2-chloro-6-fluorophenylamino)-2-(4,4-difluorocyclohexylamino)-9H-purin-9-yl)cyclohexanecarboxamide]
Second: NC(=O)[C@H]1CC[C@@H](n2c(Nc3c(Cl)cccc3Cl)nc3cnc(NC4CCC(F)(F)CC4)nc32)CC1 [Example 236, (1s,4s)-4-(8-(2,6-dichlorophenylamino)-2-(4,4-difluorocyclohexylamino)-9H-purin-9-yl)cyclohexanecarboxamide]
The IC50 of the first is higher: 0.5 to 1 µM for the first, 0.25 to 0.5 µM for the second. The second is the more potent here.

`NC(=O)[C@H]1CC[C@@H](n2c(Nc3cccc(Cl)c3F)nc3cnc(NC4CCC(F)(F)CC4)nc32)CC1` [Example 237, (1s,4s)-4-(8-(3-chloro-2-fluorophenylamino)-2-(4,4-difluorocyclohexylamino)-9H-purin-9-yl)cyclohexanecarboxamide] and `NC(=O)[C@H]1CC[C@@H](n2c(Nc3ccc(Cl)cc3Cl)nc3cnc(NC4CCC(F)(F)CC4)nc32)CC1` [Example 240, (1s,4s)-4-(8-(2,4-dichlorophenylamino)-2-(4,4-difluorocyclohexylamino)-9H-purin-9-yl)cyclohexanecarboxamide] cannot be ordered by IC50: > 1 µM for the first, > 1 µM for the second.

`NC(=O)[C@H]1CC[C@@H](n2c(Nc3cc(F)c(Cl)cc3F)nc3cnc(NC4CCC(F)(F)CC4)nc32)CC1` [Example 238, (1s,4s)-4-(8-(4-chloro-2,5-difluorophenylamino)-2-(4,4-difluorocyclohexylamino)-9H-purin-9-yl)cyclohexanecarboxamide] and `NC(=O)[C@H]1CC[C@@H](n2c(Nc3c(F)cc(F)cc3Cl)nc3cnc(N[C@H]4CCOC4)nc32)CC1` [Example 241, (1R,4s)-4-(8-(2-chloro-4,6-difluorophenylamino)-2-((S)-tetrahydrofuran-3-ylamino)-9H-purin-9-yl)cyclohexanecarboxamide] cannot be ordered by IC50: > 1 µM for the first, > 1 µM for the second.

First: NC(=O)[C@H]1CC[C@@H](n2c(Nc3c(F)cc(F)cc3Cl)nc3cnc(N[C@H]4CCCOC4)nc32)CC1 [Example 245, (1R,4s)-4-(8-(2-chloro-4,6-difluorophenylamino)-2-((S)-tetrahydro-2H-pyran-3-ylamino)-9H-purin-9-yl)cyclohexanecarboxamide]
Second: NC(=O)[C@H]1CC[C@@H](n2c(Nc3c(Cl)cc(Cl)cc3Cl)nc3cnc(N[C@H]4CCOC[C@@H]4F)nc32)CC1 [Example 246, (1R,4s)-4-(2-((3R,4S)-3-fluorotetrahydro-2H-pyran-4-ylamino)-8-(2,4,6-trichlorophenylamino)-9H-purin-9-yl)cyclohexanecarboxamide]
The IC50 of the first is higher: > 1 µM for the first, 0.5 to 1 µM for the second. The second is the more potent here.
